The record followed here is patent US20150259313A1, “Antitumor Agent” (priority 2014, published 2015).

“Also recorded” adds a separate entry of the source. Like-named read-outs stand apart in the source and are kept apart here.

Series [1] concerns hedgehog signaling pathway. Kind of series: Gli luciferase reporter assay in Gli Reporter-NIH3T3 cells stimulated with mShh. In kind it is cell-based. The conditions noted are these: mShh 1 μg/ml, 27 hours, read-out: IC50 for inhibition of the hedgehog signaling pathway. The method, then:
In vitro test: Experimental method to measure the inhibition of jervine on the hedgehog signaling pathway
Hedgehog signaling pathway Gli Reporter-NIH3T3 cells were cultured in DMEM medium with 10% Calf serum, 1% Penn-strep, 500 μg/ml of Geneticin.
To perform the Gli luciferase reporter assay, Gli Reporter-NIH3T3 cells were seeded at 25,000 cells per well into white clear-bottom 96-well microplate in 100 μl of growth medium. Cells were incubated at 37° C. and 5% CO2 for overnight. Next day remove the medium from wells and add 45 μl of diluted inhibitor in assay medium (Opti-MEM Reduced Serum Medium+0.5% calf serum+1% non-essential amino acids+1 mM Na-pyruvate+10 mM HEPES+1% Pen/Strep) per well. Incubate cells at 37° C. in a CO2 incubator for 2 hours. Then add 5 μl of diluted mShh in assay medium to wells (final [mShh]=1 μg/ml). Add […] of assay medium to cell-free control wells. Cells were treated for 27 hours. […] Luminescence was measured using a luminometer(BioTek Synergy™ 2 microplate reader) 2.3 Data Analysis
Reporter assays in triplicate were performed at each concentration. The luminescence intensity data were analyzed using the computer software, Graphpad Prism. In the absence of the compound, the luminescence intensity (Lt) in each data set was defined as 100%. In the absence of cells, the luminescence intensity (Lb) in each data set was defined as 0%. […]

The test system of series [2] is NCI-H2122 lung cancer xenograft. It counts as in vivo, BALB/c nude mice.
Description: (§1) NCI-H2122 cells were cultured in RMPI1640 medium, A431 tumor cells were cultured in DMEM medium, all the medium were supplemented with 10% heat inactivated fetal bovine serum, all cells used EDTA containing trypsin, passaged twice a week, incubated at 37° C. in an atmosphere of 5% CO2 in air and cultured.
(§2) 110 BALB/c nude mice, female, 6-8 weeks old, 18-22 g in body weight, were purchased from Shanghai Laboratory Animal Center (SLAC, Shanghai, China). The mice were kept in individually ventilated cage (NC) systems at constant temperature and humidity, with 20.5-24.5° C. for temperature, 40-75% for humidity. With 4 animals in each cage, the size ogf the cage is 325 mm×210 mm×180 mm. The bedding material is corn cob, which is changed twice per week. Animals had free access to irradiation sterilized dry granule food and water during the entire study period. The food and water were changed twice per week. The identification labels for each cage contain the following information: number of animals, sex, strain, and date received treatment, study number, group number, and the starting date of the treatment. Animals were marked by ear coding. The experiments started one week after receiving the animals.
Each mouse were inoculated subcutaneously at the right flank region with NCI-H2122 tumor cells (5×10^7/ml), NCI-H1703 tumor cells (1×10^8/ml) and A431 tumor cells (5×10^7/ml), respectively in a mixture of phosphate-buffered saline and matrigel for tumor development via a 1 ml syringe. The treatments were started when the mean tumor size reached about 200 (150-250) mm^3. […]
8.1 Tumor size was measured twice weekly in two dimensions using a caliper, and the volume was expressed in mm^3 using the formula: V=0.5 a×b^2 where a and b are the long and short diameters of the tumor, respectively. […]
(§3) A one-way analysis of variance was performed followed by multiple comparison procedures. All data was analyzed using SPSS 18.0.*p <0.05 or **P<0.01 are generally considered statistically significant when compared with vehicle group.
Series [3] deals with A431 basal cell carcinoma xenograft. Kind of series: A431 basal cell carcinoma xenograft tumor model, inoculated subcutaneously. In kind it is in vivo, BALB/c nude mice. The conditions noted are these: 40-80 mg/kg p.o. QD × 21 days.
Description: as §1, §2
(§4) Each mouse were inoculated subcutaneously at the right flank region with NCI-H2122 tumor cells (5×10^7/ml), NCI-H1703 tumor cells (1×10^8/ml) and A431 tumor cells (5×10^7/ml), respectively in a mixture of phosphate-buffered saline and matrigel for tumor development via a 1 ml syringe. The treatments were started when the mean tumor size reached about 200 (150-250) mm^3.
(§5) After tumor volume reached 3000 mm^3 or average tumor volume reached 2000 mm^3, before experimental animals emaciated or coma, anesthesia and euthanasia will be performed. During the experiment, if the weight loss of experimental animal reaches 20%, administration will be discontinued and experimental animals will be observed until the weight returned to 10% range before restart of the administration. In this experiment, when the mean tumor volume reached 2000 mm^3 or at the end of 59 days after the administration, experimental animals will be anesthesiaed to collect tumor mass which will be weighed and photographed.
(§6) 8.1 Tumor size was measured twice weekly in two dimensions using a caliper, and the volume was expressed in mm^3 using the formula: V=0.5 a×b^2 where a and b are the long and short diameters of the tumor, respectively.
(§7) 8.2 T/C, percent value, T and C were the mean volume of the treated and control groups, respectively, on a given day.
as §3
The test system of the next series is A431 xenograft. Described as above. It counts as in vivo, BALB/c nude mice.
Series [4] deals with BXPC-3 human pancreatic carcinoma xenograft. It counts as in vivo, BALB/c nude mice. The conditions noted are these: BXPC-3 xenograft.
Description: BXPC-3 tumor cells cultured in RMPI1640 medium supplemented with 10% heat inactivated fetal bovine serum, all cells used EDTA containing trypsin, passaged twice a week, incubated at 37° C. in an atmosphere of 5% CO2 in air and cultured.
40 BALB/c nude mice, female, 6-8 weeks old, 18-22 g in body weight, were purchased from Shanghai Laboratory Animal Center (SLAC, Shanghai, China).
Each mouse was inoculated subcutaneously at the right flank region with BXPC-3 tumor cells (5×10^7) in 0.1 ml of phosphate-buffered saline with matrigel via a 1 ml syringe for tumor development. The treatments were started when the mean tumor size reaches approximately 200 (150-250) mm^3 at 9 days after inoculation.
Series [5] is described as follows: Pharmacokinetic study of jervine in mice. In kind it is in vivo. The conditions noted are these: CD-1 mice. The protocol:
Orally dosed: A total of 3 male experimental CD-1 mice, approximately 8 weeks of age at receipt was administered jervine via oral gavage at 10 mg/kg. Blood samples (300 μL) were collected via cardiac puncture predose and at 2 minute, 5 minute, 15 minute, 0.5 hour, 1 hour, 2 hour, 4 hour, 8 hour, 24 hours postdose. Plasma was made form the blood samples in order to measure the concentration of jervine.

Series [6] is described as follows: Maximum tolerated dose of jervine on BALB/c nude mice. It counts as in vivo. The conditions noted are these: 14 days. The protocol:
Result indicates the maximum tolerated dose of jervine is higher than 80 mg/kg for BALB/c mice.
Study the maximum tolerated dose of jervine on BALB/c nude mice 9 BALB/c nude mice were divided equally into 3 groups. The mice were orally dosed at 50 mg/kg, 80 mg/kg and 150 mg/kg by groups. […] It was initialy determinded that the maximum tolerated dose is higher than 80 mg/kg for BALB/c nude mice.

[7] abbreviates: male, mouse, PO 10 mg/Kg, plasma.

Description for A431 xenograft: as §1, §2, §4, §5, §6, §7, §3

For the compound `CC1=C2C(=O)[C@H]3[C@@H](CC=C4C[C@@H](O)CC[C@@]43C)[C@@H]2CC[C@]12O[C@@H]1C[C@H](C)CN[C@H]1[C@H]2C` [jervine, Jervine], the IC50 in series [1] came out at 50 nM. The “T/C value (tumor volume)” value in series [2] (40 mg/kg p.o. QD for 21 days) is 0.79; in series [2] (60 mg/kg p.o. QD for 21 days), 0.701; in series [2] (80 mg/kg p.o. QD for 21 days) it was 0.594; with A431 xenograft (40 mg/kg p.o. QD for 21 days), 0.52; with A431 xenograft (60 mg/kg p.o. QD for 21 days) it was 0.80; in the series on A431 xenograft (80 mg/kg p.o. QD for 21 days), 0.82. In addition, the “T/C value (tumor volume)” value in series [4] (20 mg/kg iv QD × 21 days) was determined as 25.8%; in series [4] (40 mg/kg iv QD × 21 days) it was 59.1%; in series [4] (80 mg/kg iv QD × 21 days), 54.2%. In series [3], the “side effects / weight loss of the mice” value is recorded as “no obvious side effects; also recorded: no significant of weight lose”. The “F (bioavailability)” value in series [5] (PO 10 mg/Kg, 10 mg/kg) is recorded as 41.2%. The bioavailability in series [5] (male, CD-1, mouse, plasma, po, 10 mg/kg, read-out: F (bioavailability)) amounted to 41%. Besides, the AUC(0-inf) in series [5] (setting [7]) came out at 2260 ng·h/mL. In series [5] (setting [7]), this compound gave an AUC(0-t) of 1790 ng·h/mL. The same compound displayed a Cmax in series [5] (setting [7]) of 368 ng/mL. Also, the half-life in series [5] (male, mouse, PO 10 mg/Kg, plasma, read-out: T½ (converted)) was 11.8 h. In addition, the animal deaths result is “no animal dead” in series [6] (50 mg/kg oral); “no animal die; also recorded: no animal dead” in series [6] (80 mg/kg oral); “Two” in series [6] (150 mg/kg oral, 3 mice per group). The weight loss result in series [6] (80 mg/kg oral gavage) was “no significant weight loss”. For the same compound, the MTD in series [6] (mouse, in vivo, oral, BALB/c nude mice) is more than 80 mg/kg.

The IC50 is the concentration at which inhibition is half-maximal. In general, bioavailability refers to dose-corrected exposure relative to a reference, in per cent. The term AUC(0-inf) denotes total exposure, with the tail of the curve extrapolated. A word on the AUC(0-t): it is the area under the concentration-time curve up to a stated or last time point. Read a low AUC(0-t) as less exposure. The Cmax is the highest concentration seen after dosing. The MTD is the largest dose that counted as tolerated.
